Results from patent US8802864B2, “Triazolones as fatty acid synthase inhibitors” (GlaxoSmithKline LLC, priority 2010, dated 2014).
Read-outs that look alike come from different tables or passages of the source.

Legend:
FAS [1] = biological target: T1, FAS (Homo sapiens (Human), UniProt P49327); test: biochemical
Protocol: (§1) Inhibition of FAS activity can be measured based on the detection of residual NADPH substrate after the FAS assay is quenched. This assay is run as a 10 μL endpoint assay in 384-well format, where the reaction contains 20 μM malonyl-CoA, 2 μM acetyl-CoA, 30 μM NADPH and 40 nM FAS in 50 mM sodium phosphate, pH 7.0. […] The reaction is incubated at ambient temperature for 60 minutes, then quenched with 5 μL of a developing solution composed of 90 μM resazurin, 0.3 IU/ml diaphorase in 50 mM sodium phosphate, pH 7.0. The developed reaction is read on a Molecular Devices Analyst or Acquest (or equivalent) plate reader using a 530 nm excitation wavelength filter, a 580 nm emission filter, and 561 nm dichroic filter. The test compounds are prepared in neat DMSO at a concentration of 10 mM. […] Curves are analysed using ActivityBase and XLfit, and results are expressed as pIC50 values.
(§2) Inhibition of FAS can also be quantified based on the detection of the CoA products with a thio-reactive coumarin dye. This assay is run as a 10 μL endpoint assay in 384-well format, where the reaction contains 20 μM malonyl-CoA, 20 μM acetyl-CoA, 40 μM NADPH and 2 nM FAS in 50 mM sodium phosphate, pH 7.0, and 0.04% Tween-20. […] After 30 minutes, 5 μL substrate is added, and the reaction incubated at ambient temperature for an additional 60 minutes. The reaction is then quenched with 10 μL of 6M guanidine-HCl containing 50 μM CPM (7-diethylamino-3-(4′-maleimidylphenyl)-4-methylcoumarin (CPM; thio-reactive dye), and incubated for 30 minutes. The plate is read on an Envision (PerkinElmer) or equivalent plate reader using a 380 nm excitation wavelength filter, and a 486 nm emission filter. Data fitting and compound preparations are done as described above.

FAS [2] = biological target: T1, FAS; conditions: inhibition of FAS; tested by one of the two FAS assays; value from at least one experiment or the average of multiple experiments
Protocol: as §1, §2

T1 sequence (P49327 whole entry): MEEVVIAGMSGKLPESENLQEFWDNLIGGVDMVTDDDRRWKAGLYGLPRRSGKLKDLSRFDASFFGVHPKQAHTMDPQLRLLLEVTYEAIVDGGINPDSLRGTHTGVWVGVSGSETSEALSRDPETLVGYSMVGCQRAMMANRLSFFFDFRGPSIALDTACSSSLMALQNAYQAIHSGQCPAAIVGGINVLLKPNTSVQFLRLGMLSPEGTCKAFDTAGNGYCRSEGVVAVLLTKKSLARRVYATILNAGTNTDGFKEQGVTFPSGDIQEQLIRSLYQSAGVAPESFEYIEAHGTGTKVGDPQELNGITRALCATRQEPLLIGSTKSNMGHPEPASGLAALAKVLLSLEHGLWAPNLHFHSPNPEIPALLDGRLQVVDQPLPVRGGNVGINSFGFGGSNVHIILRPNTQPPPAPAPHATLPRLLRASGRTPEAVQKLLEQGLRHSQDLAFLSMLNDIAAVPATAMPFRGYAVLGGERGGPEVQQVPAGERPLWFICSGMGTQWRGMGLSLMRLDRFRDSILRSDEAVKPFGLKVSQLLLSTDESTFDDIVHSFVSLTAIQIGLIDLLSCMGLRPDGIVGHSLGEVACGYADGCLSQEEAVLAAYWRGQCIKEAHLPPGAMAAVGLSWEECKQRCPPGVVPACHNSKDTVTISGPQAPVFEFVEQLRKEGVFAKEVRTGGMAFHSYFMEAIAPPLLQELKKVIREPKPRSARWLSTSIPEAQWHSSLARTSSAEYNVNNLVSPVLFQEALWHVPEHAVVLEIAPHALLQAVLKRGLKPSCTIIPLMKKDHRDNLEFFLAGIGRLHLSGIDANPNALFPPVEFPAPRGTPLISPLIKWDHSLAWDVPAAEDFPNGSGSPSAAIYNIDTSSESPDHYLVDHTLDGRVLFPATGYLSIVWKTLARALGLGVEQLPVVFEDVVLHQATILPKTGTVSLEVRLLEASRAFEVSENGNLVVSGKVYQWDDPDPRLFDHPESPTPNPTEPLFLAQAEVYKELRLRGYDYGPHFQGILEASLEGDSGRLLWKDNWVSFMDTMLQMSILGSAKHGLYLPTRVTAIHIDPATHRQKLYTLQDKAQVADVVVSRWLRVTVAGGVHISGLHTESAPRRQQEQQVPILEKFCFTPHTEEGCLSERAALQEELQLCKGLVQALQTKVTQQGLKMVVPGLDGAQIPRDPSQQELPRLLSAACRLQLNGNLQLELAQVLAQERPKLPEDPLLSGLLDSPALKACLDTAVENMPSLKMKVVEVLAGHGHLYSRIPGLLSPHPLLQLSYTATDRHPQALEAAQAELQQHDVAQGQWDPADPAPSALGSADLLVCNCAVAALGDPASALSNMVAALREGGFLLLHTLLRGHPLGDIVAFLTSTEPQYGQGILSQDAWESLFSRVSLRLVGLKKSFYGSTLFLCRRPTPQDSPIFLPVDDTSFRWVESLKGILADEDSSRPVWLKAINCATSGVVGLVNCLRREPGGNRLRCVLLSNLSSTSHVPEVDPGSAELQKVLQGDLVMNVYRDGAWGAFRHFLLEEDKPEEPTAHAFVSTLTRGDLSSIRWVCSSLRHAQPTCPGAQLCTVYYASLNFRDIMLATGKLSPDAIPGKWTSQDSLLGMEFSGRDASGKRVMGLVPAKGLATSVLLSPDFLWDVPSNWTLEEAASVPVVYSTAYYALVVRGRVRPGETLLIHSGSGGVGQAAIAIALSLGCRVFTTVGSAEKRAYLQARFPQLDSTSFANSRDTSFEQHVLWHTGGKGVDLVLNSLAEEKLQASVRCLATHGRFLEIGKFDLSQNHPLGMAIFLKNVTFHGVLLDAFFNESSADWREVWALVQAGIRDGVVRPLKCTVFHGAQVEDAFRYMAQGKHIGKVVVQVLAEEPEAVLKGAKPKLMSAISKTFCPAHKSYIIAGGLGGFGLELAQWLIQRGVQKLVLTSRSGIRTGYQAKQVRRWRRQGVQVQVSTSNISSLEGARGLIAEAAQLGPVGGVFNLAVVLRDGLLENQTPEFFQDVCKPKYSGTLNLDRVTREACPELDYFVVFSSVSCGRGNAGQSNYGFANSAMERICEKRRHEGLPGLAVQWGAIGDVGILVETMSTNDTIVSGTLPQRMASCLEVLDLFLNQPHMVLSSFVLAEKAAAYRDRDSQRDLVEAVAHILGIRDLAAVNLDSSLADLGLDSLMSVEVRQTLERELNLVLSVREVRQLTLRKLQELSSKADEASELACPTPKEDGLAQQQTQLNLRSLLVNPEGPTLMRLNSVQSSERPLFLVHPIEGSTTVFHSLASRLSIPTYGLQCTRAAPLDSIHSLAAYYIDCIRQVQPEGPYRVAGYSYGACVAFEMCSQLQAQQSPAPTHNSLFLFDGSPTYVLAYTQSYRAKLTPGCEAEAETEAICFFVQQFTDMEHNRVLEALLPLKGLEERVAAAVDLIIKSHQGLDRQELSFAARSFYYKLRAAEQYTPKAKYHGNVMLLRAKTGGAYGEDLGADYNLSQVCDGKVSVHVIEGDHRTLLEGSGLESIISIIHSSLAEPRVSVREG

IC50 (FAS [1]) [nM] | IC50 (FAS [2]) [nM] | Structure (SMILES)
126 |  | N#Cc1ccc(-c2ccc(-n3c(C[C@@H]4CCN(C(=O)C5CC5)C4)n[nH]c3=O)cc2)cc1 [Example 4, 4′-(3-{[(3S)-1-(cyclopropylcarbonyl)-3-pyrrolidinyl]methyl}-5-oxo-1,5-dihydro-4H-1,2,4-triazol-4-yl)-4-biphenylcarbonitrile]
 | 20 | Cn1nc(C[C@@H]2CCN(C(=O)C3CC3)C2)n(-c2ccc(-c3ccc4occc4c3)cc2)c1=O [Example 7, 4-[4-(1-benzofuran-5-yl)phenyl]-5-{[(3S)-1-(cyclopropylcarbonyl)-3-pyrrolidinyl]methyl}-2-methyl-2,4-dihydro-3H-1,2,4-triazol-3-one]
 | 6 | O=C(C1CC1)N1CC[C@@H](Cc2n[nH]c(=O)n2-c2ccc(-c3ccc4ccoc4c3)cc2)C1 [Example 14, 4-[4-(1-benzofuran-6-yl)phenyl]-5-{[(3S)-1-(cyclopropylcarbonyl)-3-pyrrolidinyl]methyl}-2,4-dihydro-3H-1,2,4-triazol-3-one]
 | 13 | Cn1cnc2cc(-c3ccc(-n4c(C[C@@H]5CCN(C(=O)C6CC6)C5)n[nH]c4=O)cc3)ccc21 [Example 23, 5-{[(3S)-1-(cyclopropylcarbonyl)-3-pyrrolidinyl]methyl}-4-[4-(1-methyl-1H-benzimidazol-5-yl)phenyl]-2,4-dihydro-3H-1,2,4-triazol-3-one]
 | 158 | O=C(C1CC1)N1CC[C@@H](Cc2n[nH]c(=O)n2-c2ccc(-c3ccc4c(c3)OCO4)cc2)C1 [Example 38, 4-[4-(1,3-benzodioxol-5-yl)phenyl]-5-{[(3S)-1-(cyclopropylcarbonyl)-3-pyrrolidinyl]methyl}-2,4-dihydro-3H-1,2,4-triazol-3-one]
 | 5 | Cc1cc(-c2ccc3cc[nH]c3c2)ccc1-n1c(C[C@@H]2CCN(C(=O)C3CC3)C2)n[nH]c1=O [Example 42, 5-{[(3S)-1-(cyclopropylcarbonyl)-3-pyrrolidinyl]methyl}-4-[4-(1H-indol-6-yl)-2-methylphenyl]-2,4-dihydro-3H-1,2,4-triazol-3-one]
 | 16 | O=C(C1CC1)N1CC(Cc2n[nH]c(=O)n2-c2ccc(-c3ccc4cc[nH]c4c3)cc2)C1 [Example 67, 5-{[1-(cyclopropylcarbonyl)-3-azetidinyl]methyl}-4-[4-(1H-indol-6-yl)phenyl]-2,4-dihydro-3H-1,2,4-triazol-3-one]
 | 200 | CN(C)Cc1ccc(-c2ccc(-n3c(C[C@@H]4CCN(C(=O)C5CC5)C4)n[nH]c3=O)cc2)cc1 [Example 95, 5-{[(3S)-1-(cyclopropylcarbonyl)-3-pyrrolidinyl]methyl}-4-{4′-[(dimethylamino)methyl]-4-biphenylyl}-2,4-dihydro-3H-1,2,4-triazol-3-one]
 | 40 | COc1ccc(-c2ccc(-n3c(C[C@@H]4CCN(C(=O)C5CC5)C4)n[nH]c3=O)c(F)c2)cc1 [Example 116, 5-{[(3S)-1-(cyclopropylcarbonyl)-3-pyrrolidinyl]methyl}-4-[3-fluoro-4′-(methyloxy)-4-biphenylyl]-2,4-dihydro-3H-1,2,4-triazol-3-one]
 | 3 | O=C(C1CC1)N1CC[C@@H](Cc2n[nH]c(=O)n2-c2ccc(-c3ccc4cnccc4c3)cc2F)C1 [Example 132, 5-{[(3S)-1-(cyclopropylcarbonyl)-3-pyrrolidinyl]methyl}-4-[2-fluoro-4-(6-isoquinolinyl)phenyl]-2,4-dihydro-3H-1,2,4-triazol-3-one]
 | 398 | CC(=O)Nc1ccc(-c2ccc(-n3c(C[C@@H]4CCN(C(=O)C5CC5)C4)n[nH]c3=O)c(F)c2)cc1 [Example 158, N-[4′-(3-{[(3S)-1-(cyclopropylcarbonyl)-3-pyrrolidinyl]methyl}-5-oxo-1,5-dihydro-4H-1,2,4-triazol-4-yl)-3′-fluoro-4-biphenylyl]acetamide]
